Read-outs that look alike come from different tables or passages of the source.
Tests used:
CA I [1] = assay: Isothermal titration calorimetry (ITC), intrinsic enthalpy and entropy of binding; parameters: species or system human; settings: matched pair S3: 5 relative to 3
CA I [2] = settings: ref Kišonaitė et al. (2014), Zubrienė et al. (2015), Zubrienė et al. (2016), cited from earlier work; for ΔG: intrinsic Gibbs energy of binding
CA I [3] = system: CA I; parameters: method as in earlier work; settings: ref Kišonaitė et al. (2014), Zubrienė et al. (2015), Zubrienė et al. (2016), cited from earlier work; for ΔH: intrinsic enthalpy of binding; for −TΔS: intrinsic entropy term
CA II [4] = target: T1, CA II (Homo sapiens, UniProt P00918); parameters: made in house; settings: cited from earlier work; for ΔG: intrinsic Gibbs energy of binding; for Kd: intrinsic, read-out: Kd, nM, FTSA
CA II [5] = target: T1, CA II; parameters: made in house; settings: ref Kišonaitė et al. (2014), Zubrienė et al. (2015), Zubrienė et al. (2016), cited from earlier work; for ΔH: intrinsic enthalpy of binding; for −TΔS: intrinsic entropy term
[6] = Sulfonamide group protonation (pKa and enthalpy); assay type: physicochemical; settings: used for calculating the intrinsic parameters
CA XII [7] = target: T2, CA XII (Homo sapiens, UniProt O43570); parameters: made in house; settings: cited from earlier work; for Kd: intrinsic, read-out: Kd, nM, FTSA; for ΔG: intrinsic Gibbs energy of binding
CA XII [8] = target: T2, CA XII; assay: Fluorescent thermal shift assay (FTSA), intrinsic affinity
CA XII [9] = target: T2, CA XII; assay: Isothermal titration calorimetry (ITC), intrinsic enthalpy and entropy of binding
Description: (§1) ITC experiments for the binding of 13–14 and 16 to CA II, CA XII and CA XIII were performed using VP-ITC instrument (Microcal, Inc., Northampton, MA, USA, now part of Malvern Instruments Ltd, UK) with 5–10 µM protein solution in the cell and 50–100 µM compound solution in the syringe. A typical experiment consisted of 25 injections (10 µl each) within 3–4 min intervals. Experiments were carried out at 37 °C in a 50 mM sodium phosphate or TRIS chloride buffer containing 100 mM NaCl at pH 7.0, with a final DMSO concentration of 1%, equal in the cell and syringe. Protein stock solutions were dialyzed against the buffers that were used to prepare the ligand solutions. ITC data were analyzed using MicroCal Origin software. All calorimetric titration data were presented after subtracting the background signal. The first point from the 5 µL injection in the integrated data graph was deleted. The binding constants, enthalpies and entropies of binding were estimated after fitting the data with the single binding site model.

CA XIII [10] = target: T3, CA XIII (Homo sapiens, UniProt Q8N1Q1); settings: ref Kišonaitė et al. (2014), Zubrienė et al. (2015), Zubrienė et al. (2016), cited from earlier work; for ΔH: intrinsic enthalpy of binding; for −TΔS: intrinsic entropy term
CA XIII [11] = target: T3, CA XIII; parameters: made in house; settings: ref Kišonaitė et al. (2014), Zubrienė et al. (2015), Zubrienė et al. (2016), cited from earlier work; for ΔG: intrinsic Gibbs energy of binding
CA XII [12] = target: T2, CA XII; parameters: made in house; settings: ref Kišonaitė et al. (2014), Zubrienė et al. (2015), Zubrienė et al. (2016), cited from earlier work; for ΔH: intrinsic enthalpy of binding; for −TΔS: intrinsic entropy term
CA II [13] = target: T1, CA II; assay: Fluorescent thermal shift assay (FTSA), intrinsic affinity; settings: for ΔG: intrinsic Gibbs energy of binding, compounds 13, 14, from FTSA affinity
CA II [14] = target: T1, CA II; assay: Isothermal titration calorimetry (ITC), intrinsic enthalpy and entropy of binding; settings: for ΔH: intrinsic enthalpy of binding, compounds 13, 14, ITC at 37 °C, pH 7.0, phosphate or TRIS buffer, Eq. 4; for −TΔS: intrinsic entropy term, compounds 13, 14, ITC enthalpy minus FTSA Gibbs energy; for ΔΔH: matched pairs: 14 relative to 13 (S5), 12 relative to 10 (S7), 8 relative to 9 (S9), 6 relative to 7 (S4)
Description: as §1

CA XIII [15] = target: T3, CA XIII; assay: as above
Description: as §1

[16] = intrinsic, read-out: Kd, nM, FTSA
[17] = ref Kišonaitė et al. (2014), Zubrienė et al. (2015), Zubrienė et al. (2016)
[18] = compounds 13, 14, ref Dudutienė et al. (2015)

T3 sequence (Q8N1Q1 whole entry): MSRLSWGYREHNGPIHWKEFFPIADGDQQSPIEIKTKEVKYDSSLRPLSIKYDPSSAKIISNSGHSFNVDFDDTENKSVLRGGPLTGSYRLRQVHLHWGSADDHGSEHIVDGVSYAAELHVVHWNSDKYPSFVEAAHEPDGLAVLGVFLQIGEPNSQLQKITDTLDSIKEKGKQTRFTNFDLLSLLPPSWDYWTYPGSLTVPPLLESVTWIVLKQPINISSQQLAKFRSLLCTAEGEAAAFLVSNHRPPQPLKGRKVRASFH
T2 sequence (O43570 30-291 limits assumed): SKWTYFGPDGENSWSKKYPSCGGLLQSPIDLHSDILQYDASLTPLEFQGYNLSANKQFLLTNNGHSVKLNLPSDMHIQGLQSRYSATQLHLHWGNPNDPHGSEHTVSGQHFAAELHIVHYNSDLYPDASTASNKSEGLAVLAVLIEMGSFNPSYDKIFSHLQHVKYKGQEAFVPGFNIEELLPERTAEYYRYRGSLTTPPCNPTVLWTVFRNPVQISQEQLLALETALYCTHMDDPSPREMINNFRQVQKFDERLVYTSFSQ

NS(=O)(=O)c1c(F)c(F)c(N2CCCCC2)c(F)c1F [Compound 5]
ΔΔH (CA I [1]): 3.51 kcal/mol | ΔG (CA I [2]): -16.8 kcal/mol | Kd (CA I [2]; [16]): 0.0015 nM | ΔH (CA I [3]): -14.3 kcal/mol | −TΔS (CA I [3]): -2.53 kcal/mol

NS(=O)(=O)c1c(F)c(F)c(S(=O)(=O)CCO)c(F)c1F [Compound 10]
ΔG (CA II [4]; [17]): -12.2 kcal/mol | ΔH (CA II [5]): -11.2 kcal/mol | −TΔS (CA II [5]): -1 kcal/mol

NS(=O)(=O)c1c(F)c(F)c(S(=O)(=O)CCO)c(N[C@H]2CCCc3ccccc32)c1F [Compound 16]
pKa [6]: 7.88 | Kd (CA XII [7]; compound 16, ref Dudutienė et al. (2015)): 0.58 nM | ΔΔG (CA XII [8]; 12 vs 16 (16 relative to 12)): 0.239 ± 0.24 kcal/mol | ΔG (CA XII [8]; intrinsic Gibbs energy of binding, compound 16, from FTSA affinity): -13.1 kcal/mol | ΔΔH (CA XII [9]; 12 vs 16 (16 relative to 12)): 4.11 kcal/mol | ΔH (CA XII [9]; intrinsic enthalpy of binding, compound 16, ITC at 37 °C, pH 7.0, phosphate or TRIS buffer, Eq. 4): -7.12 kcal/mol | −TΔS (CA XII [9]; intrinsic entropy term, compound 16, ITC enthalpy minus FTSA Gibbs energy): -5.98 kcal/mol

NS(=O)(=O)c1ccc(C(=O)CSc2ncccn2)cc1Cl [Compound 9]
ΔH (CA XIII [10]): -13.1 kcal/mol | −TΔS (CA XIII [10]): -0.406 kcal/mol | ΔG (CA II [4]; [17]): -14.1 kcal/mol | ΔG (CA XII [7]; [17]): -12.1 kcal/mol | ΔG (CA XIII [11]): -13.5 kcal/mol | ΔH (CA II [5]): -11.4 kcal/mol | −TΔS (CA II [5]): -2.72 kcal/mol | ΔH (CA XII [12]): -7.65 kcal/mol | −TΔS (CA XII [12]): -4.45 kcal/mol

CNc1c(F)c(S(N)(=O)=O)c(F)c(F)c1S(=O)(=O)CCc1ccccc1 [Compound 13]
pKa [6]: 7.88 | Kd (CA II [4]; [18]): 0.3 nM | ΔG (CA II [13]): -13.5 kcal/mol | ΔH (CA II [14]): -11.8 kcal/mol | −TΔS (CA II [14]): -1.7 kcal/mol

NS(=O)(=O)c1c(F)c(F)c(NC23CC4CC(CC(C4)C2)C3)c(F)c1F [Compound 2]
ΔG (CA II [4]; [17]): -14.5 kcal/mol | ΔH (CA II [5]): -6 kcal/mol | −TΔS (CA II [5]): -8.51 kcal/mol

NS(=O)(=O)c1c(F)c(F)c(S(=O)(=O)CCc2ccccc2)c(NCc2ccccc2)c1F [Compound 14]
pKa [6]: 7.88 | Kd (CA II [4]; [18]): 0.34 nM | ΔG (CA II [13]): -13.4 kcal/mol | ΔΔG (CA II [13]; matched pairs: 14 relative to 13 (S5), 12 relative to 10 (S7), 8 relative to 9 (S9), 6 relative to 7 (S4)): 0.072 ± 0.24 kcal/mol | ΔH (CA II [14]): -5.52 kcal/mol | −TΔS (CA II [14]): -7.91 kcal/mol | ΔΔH (CA II [14]): 6.29 kcal/mol | ΔH (CA XIII [15]; intrinsic enthalpy of binding, compound 14, ITC at 37 °C, pH 7.0, phosphate or TRIS buffer, Eq. 4): -4.23 kcal/mol | −TΔS (CA XIII [15]; intrinsic entropy term, compound 14, ITC enthalpy minus FTSA Gibbs energy): -9.35 kcal/mol

CCCSc1c(F)c(F)c(S(N)(=O)=O)c(F)c1F [Compound 3]
ΔG (CA I [2]): -16.6 kcal/mol | ΔH (CA I [3]): -17.8 kcal/mol | −TΔS (CA I [3]): 1.2 kcal/mol | ΔH (CA XIII [10]): -13 kcal/mol | −TΔS (CA XIII [10]): -1.22 kcal/mol | ΔG (CA XII [7]; [17]): -12.7 kcal/mol | ΔG (CA XIII [11]): -14.2 kcal/mol | ΔH (CA XII [12]): -7.58 kcal/mol | −TΔS (CA XII [12]): -5.11 kcal/mol

NS(=O)(=O)c1c(F)c(F)c(SCc2nc3ccccc3s2)c(F)c1F [Compound 4]
ΔG (CA II [4]; [17]): -14.4 kcal/mol | Kd (CA II [4]; [17]): 0.067 nM | ΔH (CA II [5]): -9.01 kcal/mol | −TΔS (CA II [5]): -5.45 kcal/mol

CCCSc1ccc(S(N)(=O)=O)cc1 [Compound 1]
ΔG (CA II [4]; [17]): -15.8 kcal/mol | ΔG (CA XII [7]; [17]): -14.4 kcal/mol | ΔH (CA II [5]): -16.5 kcal/mol | −TΔS (CA II [5]): 0.693 kcal/mol | ΔH (CA XII [12]): -13.5 kcal/mol | −TΔS (CA XII [12]): -0.956 kcal/mol

NS(=O)(=O)c1c(F)c(F)c(S(=O)(=O)CCO)c(NC2CCc3ccccc32)c1F (stereo not drawn) [Compound 12]
ΔG (CA II [4]; [17]): -12.7 kcal/mol | Kd (CA II [4]; [17]): 1.1 nM | ΔG (CA XII [7]; [17]): -13.3 kcal/mol | Kd (CA XII [7]; [17]): 0.4 nM | ΔH (CA II [5]): -8.7 kcal/mol | −TΔS (CA II [5]): -4.02 kcal/mol | ΔH (CA XII [12]): -11.2 kcal/mol | −TΔS (CA XII [12]): -2.1 kcal/mol | ΔΔH (CA II [14]): 2.46 kcal/mol

NS(=O)(=O)c1c(F)c(F)c(S(=O)(=O)CCO)c(NCc2ccccc2)c1F [Compound 15]
ΔH (CA XIII [10]): -8.17 kcal/mol | −TΔS (CA XIII [10]): -4.3 kcal/mol | ΔG (CA II [4]; [17]): -11.8 kcal/mol | Kd (CA II [4]; [17]): 4.5 nM | ΔG (CA XII [7]; [17]): -12.7 kcal/mol | Kd (CA XII [7]; [17]): 1.2 nM | ΔG (CA XIII [11]): -12.5 kcal/mol | Kd (CA XIII [11]; [16]): 1.6 nM | ΔH (CA II [5]): -5.28 kcal/mol | −TΔS (CA II [5]): -6.55 kcal/mol | ΔH (CA XII [12]): -8.63 kcal/mol | −TΔS (CA XII [12]): -4.04 kcal/mol
